Results published in BindingDB's records for doi:10.1021/jm00019a005 (Warner-Lambert, 1995).

Target: Type-2 angiotensin II receptor (Oryctolagus cuniculus)
Assay: The compound was tested for binding affinity against Angiotensin II receptor, type 2 from rabbit uterus membrane by using [125I]AngII as radioligand

Row | IC50 [µM] | SMILES
1 | 0.789 | CCCCc1ncc(C=C2C(=O)NC(=O)N2CCCC)n1Cc1ccc(-c2ccccc2-c2nnn[nH]2)cc1 [1-Butyl-5-[1-{2-butyl-3-[2'-(1H-tetrazol-5-yl)-biphenyl-4-ylmethyl]-3H-imidazol-4-yl}-meth-(Z)-ylidene]-imidazolidine-2,4-dione]
2 | 5.87 | CCCCc1ncc(/C=C2/C(=O)N(CCCC)C(=O)N2CCCC)n1Cc1ccc(C(=O)OC)cc1 [4-{2-Butyl-5-[1,3-dibutyl-2,5-dioxo-imidazolidin-(4Z)-ylidenemethyl]-imidazol-1-ylmethyl}-benzoic acid methyl ester]
